Results reported in ChEMBL document CHEMBL1135808, “A new type of mixed anhydride and its applications to the synthesis of 7-substituted 8-chloro-5,5-dioxoimidazo[1,2-b][1,4,2]benzodithiazines with in vitro antitumor activity” (2002).

What was measured:
OVCAR-3 = assay: In vitro growth inhibition against ovarian cancer OVCAR-3 cell line was reported.; format: functional; conditions: Homo sapiens
RPMI-8226 [1] = assay: In vitro total growth inhibition against leukemia […] cell lines was reported.; format: functional; conditions: Homo sapiens, read-out: Log TGI (converted)
NCI-H23 = assay: In vitro total growth inhibition against non-small-cell lung cancer NCI-H23 cell lines was reported.; format: functional; conditions: Homo sapiens, read-out: Log TGI (converted)
SF-268 = assay: In vitro growth inhibition against CNS cancer SF-268 cell line was reported.; format: functional; conditions: Homo sapiens
M14 [2] = assay: Log of molar concentration leading to 50% cell death against melanoma M14 cell line was reported; format: functional; conditions: Homo sapiens, read-out: Log LC50 (the source's name) (converted)
IGROV-1 [3] = assay: In vitro growth inhibition against ovarian cancer IGROV1 cell line was reported.; format: functional; conditions: Homo sapiens
Homo sapiens = species: Homo sapiens; assay: In vitro total growth inhibition against non-small-cell lung cancer EKVX cell lines was reported.; format: functional; conditions: read-out: Log TGI (converted)
SK-MEL-5 = assay: In vitro total growth inhibition against melanoma SK-MEL-5 cell lines was reported.; format: functional; conditions: Homo sapiens, read-out: Log TGI (converted)
SK-MEL-2 = assay: In vitro growth inhibition against melanoma SK-MEL-2 cell line was reported.; format: functional; conditions: Homo sapiens
A549 [4] = assay: In vitro total growth inhibition against non-small-cell lung cancer A 549/ATCC cell lines was reported.; format: functional; conditions: Homo sapiens, read-out: Log TGI (converted)
TK-10 [5] = assay: In vitro growth inhibition against renal cancer TK-10 cell line was reported.; format: functional; conditions: Homo sapiens
K562 [6] = assay: In vitro total growth inhibition against leukemia K-562 cell lines was reported.; format: functional; conditions: Homo sapiens, read-out: Log TGI (converted)
U-251 [7] = assay: In vitro total growth inhibition against CNS cancer U251 cell lines was reported.; format: functional; conditions: Homo sapiens, read-out: Log TGI (converted)
HT-29 = assay: In vitro total growth inhibition against colon cancer HT-29 cell lines was reported.; format: functional; conditions: Homo sapiens, read-out: Log TGI (converted)
HL-60 [8] = assay: In vitro growth inhibition against leukemia HL-60(TB) cell line was reported.; format: functional; conditions: Homo sapiens
SK-MEL-28 [9] = assay: In vitro total growth inhibition against melanoma SK-MEL-28 cell lines was reported.; format: functional; conditions: Homo sapiens, read-out: Log TGI (converted)
A549 [10] = assay: In vitro growth inhibition against non-small-cell lung cancer A 549/ATCC cell line was reported.; format: functional; conditions: Homo sapiens
OVCAR-4 = assay: Log of molar concentration leading to 50% cell death against ovarian cancer OVCAR-4 cell line was reported; format: functional; conditions: Homo sapiens, read-out: Log LC50 (the source's name) (converted)
LOX IMVI = assay: In vitro total growth inhibition against melanoma LOX IMVI cell lines was reported.; format: functional; conditions: Homo sapiens, read-out: Log TGI (converted)
Tumor Cell line = assay: In vitro total growth inhibition for 50 cell lines was reported as log of molar concentration; format: functional, Homo sapiens
IGROV-1 [11] = assay: Log of molar concentration leading to 50% cell death against ovarian cancer IGROV1 cell line was reported; format: functional; conditions: Homo sapiens, read-out: Log LC50 (the source's name) (converted)
U-251 [12] = assay: In vitro growth inhibition against CNS cancer U251 cell line was reported.; format: functional; conditions: Homo sapiens
SNB-19 = assay: In vitro total growth inhibition against CNS cancer SNB-19 cell lines was reported.; format: functional; conditions: Homo sapiens, read-out: Log TGI (converted)
UO-31 = assay: In vitro growth inhibition against renal cancer UO-31 cell line was reported.; format: functional; conditions: Homo sapiens
HL-60 [13] = assay: Log of molar concentration leading to 50% cell death against leukemia HL-60(TB) cell line was reported; format: functional; conditions: Homo sapiens, read-out: Log LC50 (the source's name) (converted)
OVCAR-5 = assay: In vitro total growth inhibition against ovarian cancer OVCAR-5 cell lines was reported.; format: functional; conditions: Homo sapiens, read-out: Log TGI (converted)
HOP-92 = assay: In vitro growth inhibition against non-small-cell lung cancer HOP-92 cell line was reported.; format: functional; conditions: Homo sapiens
RXF 393 [14] = assay: In vitro total growth inhibition against renal cancer RXF 393 cell lines was reported.; format: functional; conditions: Homo sapiens, read-out: Log TGI (converted)
M14 [15] = assay: In vitro growth inhibition against melanoma M14 cell line was reported.; format: functional; conditions: Homo sapiens
MCF7 = assay: In vitro growth inhibition against breast cancer MCF 7 cell line was reported.; format: functional; conditions: Homo sapiens
OVCAR-8 = assay: In vitro total growth inhibition against ovarian cancer OVCAR-8 cell lines was reported.; format: functional; conditions: Homo sapiens, read-out: Log TGI (converted)
Malme-3M = assay: In vitro growth inhibition against melanoma MALME 3M cell line was reported.; format: functional; conditions: Homo sapiens
SK-MEL-28 [16] = assay: In vitro growth inhibition against melanoma SK-MEL-28 cell line was reported.; format: functional; conditions: Homo sapiens
TK-10 [17] = assay: In vitro total growth inhibition against renal cancer TK-10 cell lines was reported.; format: functional; conditions: Homo sapiens, read-out: Log TGI (converted)
DU-145 = assay: Log of molar concentration leading to 50% cell death against prostate cancer […] cell line was reported; format: functional; conditions: Homo sapiens, read-out: Log LC50 (the source's name) (converted)
NCI-H522 = assay: Log of molar concentration leading to 50% cell death against non-small-cell lung cancer NCI-522 cell line was reported; format: functional; conditions: Homo sapiens, read-out: Log LC50 (the source's name) (converted)
K562 [18] = assay: In vitro growth inhibition against leukemia K-562 cell line was reported.; format: functional; conditions: Homo sapiens
SF-539 [19] = assay: Log of molar concentration leading to 50% cell death against CNS cancer SF-539 cell line was reported; format: functional; conditions: Homo sapiens, read-out: Log LC50 (the source's name) (converted)
786-0 = assay: In vitro total growth inhibition against renal cancer […] cell lines was reported.; format: functional; conditions: Homo sapiens, read-out: Log TGI (converted)
UACC-62 = assay: In vitro growth inhibition against melanoma UACC-62 cell line was reported.; format: functional; conditions: Homo sapiens
HOP-62 [20] = assay: In vitro total growth inhibition against non-small-cell lung cancer HOP-62 cell lines was reported.; format: functional; conditions: Homo sapiens, read-out: Log TGI (converted)
T47D [21] = assay: In vitro total growth inhibition against breast cancer […] cell lines was reported.; format: functional; conditions: Homo sapiens, read-out: Log TGI (converted)
RPMI-8226 [22] = assay: In vitro growth inhibition against leukemia […] cell line was reported.; format: functional; conditions: Homo sapiens
MDA-MB-231 [23] = assay: In vitro growth inhibition against breast cancer MDA-MB-231/ATCC cell line was reported.; format: functional; conditions: Homo sapiens
T47D [24] = assay: In vitro growth inhibition against breast cancer […] cell line was reported.; format: functional; conditions: Homo sapiens
SN12C = assay: In vitro growth inhibition against renal cancer SN12C cell line was reported.; format: functional; conditions: Homo sapiens
EKVX = assay: In vitro growth inhibition against non-small-cell lung cancer EKVX cell line was reported.; format: functional; conditions: Homo sapiens
MOLT-4 = assay: In vitro growth inhibition against leukemia MOLT-4 cell line was reported.; format: functional; conditions: Homo sapiens
NCI-H322M = assay: In vitro total growth inhibition against non-small-cell lung cancer NCI-H322M cell lines was reported.; format: functional; conditions: Homo sapiens, read-out: Log TGI (converted)
PC-3 = assay: Log of molar concentration leading to 50% cell death against prostate cancer PC-3 cell line was reported; format: functional; conditions: Homo sapiens, read-out: Log LC50 (the source's name) (converted)
COLO 205 = assay: In vitro total growth inhibition against colon cancer COLO 205 cell lines was reported.; format: functional; conditions: Homo sapiens, read-out: Log TGI (converted)
HCC 2998 = assay: Log of molar concentration leading to 50% cell death against colon cancer HCC2998 cell line was reported; format: functional; conditions: Homo sapiens, read-out: Log LC50 (the source's name) (converted)
MDA-MB-231 [25] = assay: In vitro total growth inhibition against breast cancer MDA-MB-231/ATCC cell lines was reported.; format: functional; conditions: Homo sapiens, read-out: Log TGI (converted)
RXF 393 [26] = assay: Log of molar concentration leading to 50% cell death against renal cancer RXF 393 cell line was reported; format: functional; conditions: Homo sapiens, read-out: Log LC50 (the source's name) (converted)
NCI/ADR-RES = assay: In vitro total growth inhibition against breast cancer NCI/ADR-RES cell lines was reported.; format: functional; conditions: Homo sapiens, read-out: Log TGI (converted)
KM12 = assay: Log of molar concentration leading to 50% cell death against colon cancer KM12 cell line was reported; format: functional; conditions: Homo sapiens, read-out: Log LC50 (the source's name) (converted)
HCT-116 = assay: Log of molar concentration leading to 50% cell death against colon cancer HCT116 cell line was reported; format: functional; conditions: Homo sapiens, read-out: Log LC50 (the source's name) (converted)
HCT-15 = assay: In vitro growth inhibition against colon cancer […] cell line was reported.; format: functional; conditions: Homo sapiens
SF-539 [27] = assay: In vitro growth inhibition against CNS cancer SF-539 cell line was reported.; format: functional; conditions: Homo sapiens
HOP-62 [28] = assay: Log of molar concentration leading to 50% cell death against non-small-cell lung cancer HOP-62 cell line was reported; format: functional; conditions: Homo sapiens, read-out: Log LC50 (the source's name) (converted)

O=C(Nc1cccc2nsnc12)c1cc2c(cc1Cl)Sc1nccn1S2(=O)=O
GI50 (OVCAR-3): 1.78 µM | TGI (RPMI-8226 [1]): 4.07 µM | TGI (NCI-H23): 25.1 µM | GI50 (SF-268): 3.39 µM | CC50 (M14 [2]): 69.2 µM | GI50 (IGROV-1 [3]): 5.5 µM | TGI (Homo sapiens): 4.68 µM | TGI (SK-MEL-5): 33.9 µM | GI50 (SK-MEL-2): 10 µM | TGI (A549 [4]): 38.9 µM | GI50 (TK-10 [5]): 10.5 µM | TGI (K562 [6]): 20 µM | TGI (U-251 [7]): 15.8 µM | TGI (HT-29): 5.25 µM | GI50 (HL-60 [8]): 1.86 µM | TGI (SK-MEL-28 [9]): 6.76 µM | GI50 (A549 [10]): 12.6 µM | CC50 (OVCAR-4): 87.1 µM | TGI (LOX IMVI): 40.7 µM | Log GTI (Tumor Cell line): -4.31 | CC50 (IGROV-1 [11]): 79.4 µM | GI50 (U-251 [12]): 4.57 µM | TGI (SNB-19): 24.5 µM | GI50 (UO-31): 2.09 µM | CC50 (HL-60 [13]): 7.41 µM | TGI (OVCAR-5): 83.2 µM | GI50 (HOP-92): 5.89 µM | TGI (RXF 393 [14]): 28.8 µM | GI50 (M14 [15]): 17.4 µM | GI50 (MCF7): 1.74 µM | TGI (OVCAR-8): 7.08 µM | GI50 (Malme-3M): 66.1 µM | GI50 (SK-MEL-28 [16]): 2.45 µM | TGI (TK-10 [17]): 22.9 µM | CC50 (DU-145): 6.03 µM | CC50 (NCI-H522): 89.1 µM | GI50 (K562 [18]): 4.07 µM | CC50 (SF-539 [19]): 15.5 µM | TGI (786-0): 30.2 µM | GI50 (UACC-62): 5.37 µM | TGI (HOP-62 [20]): 3.8 µM | TGI (T47D [21]): 5.75 µM | GI50 (RPMI-8226 [22]): 2.09 µM | GI50 (MDA-MB-231 [23]): 6.03 µM | GI50 (T47D [24]): 1.7 µM | GI50 (SN12C): 15.1 µM | GI50 (EKVX): 2.29 µM | GI50 (MOLT-4): 2.75 µM | TGI (NCI-H322M): 3.24 µM | CC50 (PC-3): 6.46 µM | TGI (COLO 205): 30.9 µM | CC50 (HCC 2998): 55 µM | TGI (MDA-MB-231 [25]): 24.5 µM | CC50 (RXF 393 [26]): 56.2 µM | TGI (NCI/ADR-RES): 38.9 µM | CC50 (KM12): 7.41 µM | CC50 (HCT-116): 12.9 µM | GI50 (HCT-15): 5.25 µM | GI50 (SF-539 [27]): 2.24 µM | CC50 (HOP-62 [28]): 8.71 µM
